Results: patent US6060604A, “Pharmaceutical compounds comprising polyamines substituted with electron-affinic groups” (priority 1996, dated 2000)
Several values for one entry are separate records, joined by “and”; a condition that tells them apart may be missing. Equal values may be shown once. Where a name gives a salt, the structure may show the parent alone.

Experiments:
[1] = as radiosensitizers; cited from earlier work
[2] = tested on: hypoxic CHO cells; assay: radiosensitizing potency on hypoxic CHO cells as a function of linker length (Table 3); assay type: cell-based, Chinese hamster; conditions: 8 Gy; for Sensitization Ratio at 20% Cell Survival Level: vs metronidazole, by linker (spacer chain) length
Method: The experiment shown in Table 3 is a later experiment which was conducted to determine the effect of the spacer chain (i.e., A) length. CHO cells were plated and allowed to attach to petri dishes for 3 h, then the media was replaced with 5 ml of Hank's Balanced Salt Solution with or without drugs. To induce cell hypoxia, the dishes were placed in sealed aluminum chambers which were degassed by pumping, and then back filled with 95% N2 /5% CO2. After 4 cycles, when the cells were severely hypoxic, the chambers were exposed to an X-ray beam generated by a General Electric Maxitron 300 therapy machine operated at 250 kVp and 20 mA (HVL 20 mm Al filter; dose rate at 2 Gy/min). The cells were cultured for 7 days in a 37° C. incubator and the resulting cell colonies were stained and counted.

[3] = tested on: CHO cells; assay: thermo-radiosensitization of hypoxic CHO cells, colony forming assay (Table 4); assay type: cell-based, Chinese hamster; conditions: 41° C.; for combined drug/mild hyperthermia effect on radiosensitivity: hypoxic CHO cells; for Do: 30 min
Method: To examine the thermo-radiosensitizing effects of compounds (8) and (10), hypoxic CHO cells were irradiated (with or without drugs) with radiation doses ranging from 0-30 Gy. After irradiation, the chambers were placed either in a 37° C. or in a 41° C. water bath for 30 min. Then cell survival was evaluated by the colony forming assay.

[4] = tested on: Chinese hamster ovary (CHO) cells; assay: in vitro radiosensitization of hypoxic CHO cells, colony formation (Table 1); assay type: cell-based; conditions: drug dose 0.1 mM; for SFR (N2)(18 Gy), surviving fraction ratio: hypoxic
Method: Cells were plated and allowed to attach on glass petri dishes for 3 h, then the media was replaced with 5 ml of Hank's balanced salt solution (HBSS) with or without drugs. To induce cell hypoxia, the dishes were placed at room temperature into sealed aluminum chambers (8 dishes/chamber). […] This procedure was repeated 4 times with 5 min holding periods under positive gas pressure between evacuations. After 1 h, when the cells were severely hypoxic, the chambers were placed in 37° C. water bath for 1 hr. For oxic treatment groups, cells were placed in 37° C. incubators for 2 h with 5 ml of HBSS (±drugs). The chambers were placed on a rotating table and exposed to an X-ray beam generated by a General Electric Maxitron 300 therapy machine operated at 250 kVp and 20 mA (HVL 20 mm Al filter; dose rate at 2 Gy/min). After irradiation, cells were rinsed with HBSS, and covered with fresh media. Cells were cultured for 7 days in a 37° C. incubator. The resulting cell colonies were stained and counted.

[5] = tested on: CHO cells; assay: radiosensitization potency on hypoxic CHO cells at 20% survival, single X ray dose 8 Gy (Table 2); assay type: cell-based, Chinese hamster; conditions: for IC80: Cricetulus griseus, CHO, read-out: drug molarity required to reduce cell survival to 20% of the untreated control value; for times more potent than metronidazole: hypoxic, 20% survival; for times more potent than metronidazole / Sensitization Ratio at 20% Survival Level: 8 Gy; for Sensitization Ratio at 20% Survival Level: vs metronidazole
Method: Cells were plated and allowed to attach on glass petri dishes for 3 h, then the media was replaced with 5 ml of Hank's balanced salt solution (HBSS) with or without drugs. To induce cell hypoxia, the dishes were placed at room temperature into sealed aluminum chambers (8 dishes/chamber). The chambers were degassed by pumping, and then back-filled with 95% N2 and 5% CO2. This procedure was repeated 4 times with 5 min holding periods under positive gas pressure between evacuations. After 1 h, when the cells were severely hypoxic, the chambers were placed in 37° C. water bath for 1 hr. For oxic treatment groups, cells were placed in 37° C. incubators for 2 h with 5 ml of HBSS (±drugs). The chambers were placed on a rotating table and exposed to an X-ray beam generated by a General Electric Maxitron 300 therapy machine operated at 250 kVp and 20 mA (HVL 20 mm Al filter; dose rate at 2 Gy/min). After irradiation, cells were rinsed with HBSS, and covered with fresh media. Cells were cultured for 7 days in a 37° C. incubator. The resulting cell colonies were stained and counted.
In the experiment shown in Table 2 hypoxic CHO cells were irradiated with a single X ray dose of 8 Gy, with or without drugs.

[6] = tested on: hypoxic CHO cells; assay: in vitro toxicity on hypoxic CHO cells, colony formation; assay type: cell-based, Chinese hamster; conditions: 0.2 mM, 12 hours at 37° C.
Method: Subsequently, hypoxic CHO cells were incubated with 0.2 mM DATM or 10 mM metro for 12 hours at 37° C.

[7] = tested on: hypoxic CHO cells; assay: radiosensitizing hypoxic CHO cells, drugs given 2 hours at 4° C.; assay type: cell-based, Chinese hamster
[8] = tested on: mice; assay: preliminary in vivo toxicity, intraperitoneal, mice
Method: In a preliminary in vivo study, two groups of mice were injected intraperitoneally with either 1 g/kg or 4 g/kg of DATM (formula 8).

[9] = solubility in water; assay type: physicochemical; conditions: d-gluconic acid salt
Method: A solution of N, N, N', N'-tetra[2'-(2-methyl-5-nitro-1-imidazolyl)ethyl]-1,8-octanediamine free base was prepared by dissolving 0.5 g of N, N, N', N'-tetra[2'-(2-methyl-5-nitro-1-imidazolyl)ethyl]-1,8-octanediamine in 20 ml of CH2 Cl2. To this solution, 2 g of gluconic acid in 5 ml of water was added. To the resultant mixture, pure MeOH was added dropwise until the mixture became a homogeneous solution. To this, 50 ml of ether, followed by 200 ml of hexane were added to precipitate the solid. The reaction mixture was cooled to 4° C., and the precipitated salt was removed by filtration through a sintered glass funnel, washed with anhydrous ether and dried under vacuum.

[10] = tested on: H. pylori; assay: disk diffusion method, H. pylori growth inhibition; assay type: cell-based
[11] = tested on: mice; assay: later in vivo toxicity, oral, mice
[12] = tested on: MTG-B mammary adenocarcinoma tumors; assay: in vivo radiosensitization of MTG-B mammary adenocarcinoma tumors in mice; set-up: species or system female C3H mice
Method: To determine whether the pronounced effects of DATM in tissue culture can be duplicated in solid tumors, in vivo studies were performed on mice bearing MTG-B mammary adenocarcinoma tumors. The tumors were grown subcutaneously in the right flank of 7-week old female C3H mice. When the tumor diameter reached 8 mm, 8-carbon DATM was administered to groups of mice either intraperitoneally or orally at 2 g/kg, and 2 or 4 h later the tumors were subjected to an X-ray dose of 22 Gy. Control mice bearing identical tumors were either left untreated or treated with radiation alone or drug alone. For irradiation, the mice were placed into lead holders with the tumor-bearing leg exposed. After treatment, the tumor diameters were measured daily by caliper and the time required for tumors to grow to twice their initial size was calculated as tumor doubling time (TDT), with the treatment day defined as Day 0 for all calculations and plots, The survival time for mice was also recorded in all treatment groups.
To evaluate radiosensitization at different radiation doses, additional experiments were carried out where mice receiving DATM (2 g/kg body weight, given orally) were exposed to different radiation doses (0, 12, 22, 32 Gy).
FIG. 10 compares the effectiveness of oral DATM (2 g/kg body weight) to that of a much smaller DATM dose (25 mg/kg body weight) injected directly into the tumor.

[13] = tested on: H. pylori; assay: agar dilution method, inhibition of H. pylori growth; assay type: cell-based, H. pylori strain ATCC43504
[14] = tested on: H. pylori; assay: modified bottle broth method, H. pylori growth inhibition; assay type: cell-based
[15] = DATM (2 g/kg, i.p. or oral) + radiation 22 Gy

COCC(O)Cn1ccnc1[N+](=O)[O-] (centres unmarked) [misonidazole]
toxicity at therapeutic levels [1]: highly toxic at therapeutic levels

Cc1ncc([N+](=O)[O-])n1CCN(CCCCCCN(CCn1c([N+](=O)[O-])cnc1C)CCn1c([N+](=O)[O-])cnc1C)CCn1c([N+](=O)[O-])cnc1C [Linker Length 6]
Sensitization Ratio at 20% Cell Survival Level [2]: 120

Cc1ncc([N+](=O)[O-])n1CCN(CCCCN(CCn1c([N+](=O)[O-])cnc1C)CCn1c([N+](=O)[O-])cnc1C)CCn1c([N+](=O)[O-])cnc1C [Linker Length 4, N, N, N', N'-tetra [2'-(2-methyl-5-nitro-1-imidazolyl)ethyl]-1,4-butanediamine]
times more potent/effective than metronidazole [2]: 50 times
Sensitization Ratio at 20% Cell Survival Level [2]: 50

Cc1ncc([N+](=O)[O-])n1CCN(CCCCCN(CCn1c([N+](=O)[O-])cnc1C)CCn1c([N+](=O)[O-])cnc1C)CCn1c([N+](=O)[O-])cnc1C [Compound 10, N, N, N', N'-tetra[2'-(2-methyl-5-nitro-1-imidazolyl)ethyl]-1,5-pentanediamine]
combined drug/mild hyperthermia effect on radiosensitivity [3]: hypoxic cells become even more radiosensitive (smaller D0) than fully oxic cells
Do ([3]; drug dose 10 μM): 0.6 Gy
Do [4]: 1.9 Gy
Ratio of RT Dose For 0.04 SF [4]: 1.5
SFR (N2)(18 Gy), surviving fraction ratio [4]: 21.4
IC80 [5]: 25 µM
times more potent than metronidazole [5]: 400 times
Sensitization Ratio at 20% Survival Level [5]: 400

Cc1ncc([N+](=O)[O-])n1CCN(CCCCN(CCn1c([N+](=O)[O-])cnc1C)CCn1c([N+](=O)[O-])cnc1C)CCn1c([N+](=O)[O-])cnc1C [Compound 8, N, N, N', N'-tetra [2'-(2-methyl-5-nitro-1-imidazolyl)ethyl]-1,4-butanediamine]
combined drug/mild hyperthermia effect on radiosensitivity [3]: hypoxic cells become even more radiosensitive (smaller D0) than fully oxic cells
Do ([3]; drug dose 50 μM): 0.8 Gy
Do [4]: 2.5 Gy
Ratio of RT Dose For 0.04 SF [4]: 1.5
SFR (N2)(18 Gy), surviving fraction ratio [4]: 9.0
IC80 [5]: 200 µM
times more potent than metronidazole [5]: 50 times
Sensitization Ratio at 20% Survival Level [5]: 50
toxic effects on CHO cells [6]: No toxic effects were noted
radiosensitizing effectiveness, 0.2 mM DATM vs 10 mM metro [7]: equally effective
toxicity ([8]; 1 g/kg intraperitoneally, mice): No toxicity was observed
lethality ([8]; 4 g/kg intraperitoneally, mice): all mice of the 4 g/kg group died
toxicity compared to metro ([8]; same dosage): roughly comparable to that of metro for the same dosage

Cc1ncc([N+](=O)[O-])n1CCN(CCCCCN(CCn1c([N+](=O)[O-])cnc1C)CCn1c([N+](=O)[O-])cnc1C)CCn1c([N+](=O)[O-])cnc1C [5-carbon DATM, N, N, N', N'-tetra[2'-(2-methyl-5-nitro-1-imidazolyl)ethyl]-1,5-pentanediamine]
Sensitization Ratio at 20% Cell Survival Level [2]: 80

Cc1ncc([N+](=O)[O-])n1CCN(CCCCCCCN(CCn1c([N+](=O)[O-])cnc1C)CCn1c([N+](=O)[O-])cnc1C)CCn1c([N+](=O)[O-])cnc1C [Linker Length 7]
Sensitization Ratio at 20% Cell Survival Level [2]: 220

Cc1ncc([N+](=O)[O-])n1CCN(CCCCCCCCN(CCn1c([N+](=O)[O-])cnc1C)CCn1c([N+](=O)[O-])cnc1C)CCn1c([N+](=O)[O-])cnc1C [Example 5, N, N, N', N'-tetra[2'-(2-methyl-5-nitro-1-imidazolyl)ethyl]-1,8-octanediamine gluconic acid salt]
solubility in water [9]: highly soluble in water

Cc1ncc([N+](=O)[O-])n1CCN(CCCCCCCCN(CCn1c([N+](=O)[O-])cnc1C)CCn1c([N+](=O)[O-])cnc1C)CCn1c([N+](=O)[O-])cnc1C [8-carbon DATM, N, N, N', N'-tetra[2'(2-methyl-5-nitro-1-imidazolyl)ethyl]-1,8-octanediamine]
times more potent than metronidazole in killing H. pylori [10]: 22.1 times
Sensitization Ratio at 20% Cell Survival Level [2]: 510
times less toxic to mice than metronidazole ([11]; oral): at least 5 times
toxicity ([11]; oral doses as high as 20 g/kg): no toxicity was observed
sensitization effect of intratumor injection vs intraperitoneal ([12]; 25 mg/kg intratumor vs 2 g/kg i.p., 22 Gy): same sensitization effect as 2 g/kg given intraperitoneally
effectiveness of intratumor injection vs oral ([12]; 25 mg/kg intratumor vs 2 g/kg oral): much more effective than oral drug administration
life span of tumor-bearing mice ([12]; 2 g/kg orally, radiation doses 0, 12, 22, 32 Gy): pronounced increase in the life span of tumor-bearing mice at all radiation doses studied
tumor doubling time (TDT) ([12]; 8-carbon DATM alone): 4 days
survival time of mice ([12]; 8-carbon DATM alone, 2 g/kg, no radiation): 13 to 15 days
increase of survival time [12, 15]: 157-179%
survival time [12, 15]: 36 days and 39 days
effectiveness in delaying tumor growth relative to radiation alone ([12]; DATM + radiation): ~3 times
tumor doubling time (TDT) ([12]; DATM + radiation): 18 days
effectiveness of oral vs intraperitoneal ([12]; equal drug dose, 22 Gy): slightly less effective than an equal drug dose administered intraperitoneally
ratio of the MIC of metronidazole over that of DATM [13]: 35.37
ratio of the two MIC (metronidazole/DATM) [14]: 132.63
